Assay results from US6358491B1, “Somatostatin analogs” (Berlex Laboratories, Inc., priority 1999, dated 2002).
Read-outs that look alike come from different tables or passages of the source. *1 amine or outer side, *2 acyl side, *3 side chain or, on linkers, in order; H or OH if unused. Where a SMILES comes first, the peptide text is derived from it. Bridges are numbered along the chain shown (N, C = ends). Roman numbers before positions name the chains, in order. [ ]: non-standard residue; d: D form. ξ: configuration not given here. Phe(4-NH2) = Nc1ccc(C[C@H](N)C(=O)O)cc1; NMehCys = CN[C@@H](CCS)C(=O)O; Thr(3ξ) = CC(O)[C@H](N)C(=O)O; Dap = NC[C@H](N)C(=O)O; X1 = O=C(C[*:1])[*:2]

How the values were obtained:
SSTRs, NCI-H69 membranes = experiment: [125I]SST-14 binding to NCI-H69 cell membranes (SSTR affinity); parameters: species or system human; conditions: inhibition of [125I]SST-14 binding, two-site fit
Method: (§1) [^125I-Tyr^11] somatostatin-14 ([^125I]SST-14) was obtained from Amersham. Unlabeled somatostatin-14 was purchased either from BACHEM (Torrance, Calif.) or from Sigma Chemical Co. (St. Louis, Mo.). Protease inhibitors, leupeptin, aprotinin, bacitracin, and benzamidine and other reagents were obtained from Sigma. Protease inhibitors were prepared in dimethylsulfoxide (DMSO) at a concentration 500×higher than the final assay concentration. The prepared protease solution was stored at −20° C. and diluted with the buffer solution before use.
Membrane preparations used in these studies were prepared from two commercially available tumor cell lines, the human small cell lung cancer cell line, NCI-H69, and the rat pancreatic tumor cell line, AR42J, obtained from American Type Culture Collection (ATCC) (Manassas, Va.). NCI-H69 cells were maintained by serial passage in RPMI 1640 with 10% fetal calf serum. AR42J cells were maintained in F-12K medium containing 20% fetal calf serum. Cells in culture flasks were incubated at 37° C. with 5% CO2 in air atmosphere following the recommendations of the “Product Sheet” from ATCC.
Cultured cells were first detached from plates with phosphate-buffered saline, pH 7.4, containing 2 mM EDTA, and centrifuged at 1,500×g for 10 min. Cells were then resuspended in 5-10 mL of the homogenization buffer (1 mM sodium bicarbonate, pH 7.4, 1 mM EDTA, 1 mM EGTA, 2.5 mM DTT, 5 μg/mL leupeptin, 5 μg/mL aprotinin, 100 μg/mL bacitracin, 100 μg/mL benzamidine) for 10 min on ice. The cells were lysed for 30 sec twice in a polytron with a setting at 5. The lysate was centrifuged at 1,000×g for 10 min at 4° C. The supernatant was centrifuged at 40,000×g for 20 min at 4° C. This step was repeated twice with the homogenization buffer in the absence of protease inhibitors. The pellet was then resuspended at 1-5 mg membrane protein/mL in 25 mM Tris, pH 7.4 without the addition of protease inhibitors and the membranes were stored at −80° C. before use. Membrane protein concentration was determined spectroscopically using the bicinchonic acid (BCA) protein assay kit (Pierce Chemical Inc. (Rockford, Ill.).
All [^125I]SST-14 binding assays were performed in 0.5 mL binding buffer containing 50 mM HEPES, pH 7.5, 10 mM MgCl2, 0.25% BSA (w/v) containing protease inhibitors (same as above) and incubated at 37° C. for 45 minutes. After incubation, samples were kept at 4° C. and rapidly filtered under vacuum through a Whatman GF/B glass fiber filter with a 12-well harvester (Skatron Instruments Inc., Sterling, Va.). The filter was washed for 9 seconds with cold 50 mM HEPES, pH 7.5, 10 mM MgCl2, 0.25% BSA (w/v). Thirty-five […] of [^125I]SST-14 from Amersham was used in each tube. Peptides were solubilized in DMSO and serially diluted with DMSO. Five μL of peptide in DMSO was used to obtain the final concentration. DMSO (5 μL) was added to the tube without the addition of any peptide or unlabeled SST-14, so that each tube contained 1% DMSO. Non-specific binding was defined as the binding of [^125I]SST-14 which was not displaceable with an excess of unlabeled SST-14 at a concentration of 1×10^−6 M. The bound [^125I]SST-14 without or with excess unlabeled SST-14 (1×10^−6 M) was defined as total binding and nonspecific binding, respectively. The difference between total and nonspecific binding was defined as specific binding. The percent inhibition (% Inh) by peptide was expressed as
% Inh=(total binding−total binding in the presence of peptide)/specific binding×100%
Inclusion of protease inhibitors in homogenizing medium as well as assay buffer is essential to maintain the integrity of both [^125I]SST-14 and somatostatin analogs for the receptor binding assay and to obtain optimal specific binding. The highest specific binding was observed when MgCl2 (10 mM) was included. Membranes were finally resuspended in a sodium-free medium and receptor binding assays were performed in the absence of sodium ions. […]

AR42J tumor xenografts = experiment: Biodistribution of 99mTc-labeled compounds in nude mice with AR42J tumor xenografts; assay type: in vivo; conditions: 99mTc-labeled compound, 90 minutes post-injection; for TUMOR: i.v.; for T:B: tumor to blood ratio; for T:M: tumor to muscle ratio
Method: (§2) Rat pancreatic AR42J cells (ATCC, Rockville, Md., USA) were grown in Modified Ham's F12K medium (Cat. No. N-3520, Sigma, St. Louis, Mo., USA) containing 20% fetal bovine serum (FCS) (Cat. No. 1224, Lot No. 9702058, Sigma, St. Louis, Mo., USA) under sterile conditions in 95% humidity and 5% CO2. At a density of approximately 10×10^6 cells per T150 flask, the cells were harvested with trypsin and collected by centrifugation at 2400 rpm (800×g) for 15 minutes in a benchtop centrifuge (IEC Centra-8 tabletop centrifuge, International Equipment Company, Needham, Mass., USA). The cells were resuspended in medium containing 20% FCS for implantation.
(§3) Six female nude mice (CrlLNU/NU-nuBR, 6-8 weeks old) were injected subcutaneously into the right flank with tumor cells (2×10^7/100 μL) in 20% matrigel (Collaborative Biomedical Products, Chicago, Ill., USA). Fourteen days after inoculation tumors were visible in all animals. Three weeks after inoculation, tumors were aseptically dissected, minced and implanted into 60 nude mice using a trochar. The tumor xenografts from the second passage were used for biodistribution studies.
(§4) A dose of approximately 50-100 μCi ^99mTc-labeled compound/mouse was injected intravenously in a total volume of 100 μL. Mice were sacrificed 90 minutes post-injection by decapitation and the trunk blood was collected. Tumors (1 to 3 per mouse), liver, gastrointestinal tract, kidneys, and samples of muscle from both legs (quadriceps femoralis) were collected, weighed, and counted for radioactivity.

[1] = test system: SSTRs, AR42J cell membranes; experiment: [125I]SST-14 binding to AR42J cell membranes (SSTR affinity); parameters: species or system rat; conditions: inhibition of [125I]SST-14 binding; two-site fit; read-out: IC50 Values for AR42J Cell Membranes (first value)
Method: as §1
Membrane preparations used in these studies were prepared from two commercially available tumor cell lines, the human small cell lung cancer cell line, NCI-H69, and the rat pancreatic tumor cell line, AR42J, obtained from American Type Culture Collection (ATCC) (Manassas, Va.). […]
Cultured cells were first detached from plates with phosphate-buffered saline, pH 7.4, containing 2 mM EDTA, and centrifuged at 1,500×g for 10 min. […] Membrane protein concentration was determined spectroscopically using the bicinchonic acid (BCA) protein assay kit (Pierce Chemical Inc. (Rockford, Ill.).
All [^125I]SST-14 binding assays were performed in 0.5 mL binding buffer containing 50 mM HEPES, pH 7.5, 10 mM MgCl2, 0.25% BSA (w/v) containing protease inhibitors (same as above) and incubated at 37° C. for 45 minutes. […] The percent inhibition (% Inh) by peptide was expressed as […]

[2] = Biodistribution of 99mTc-labeled compounds in nude mice with AR42J tumor xenografts; assay type: in vivo; conditions: nude, mouse, iv, total radioactivity, 99mTc-labeled compound, 90 minutes post-injection; for tissue uptake dose at 1.5 h: i.v.
Method: as §2, §3, §4

[3] = patient, four cycles of treatment; cited from earlier work
[4] = 24 hours post-injection, cited from earlier work
[5] = read-out: IC50 Values for Uncomplexed Compounds, NCI-H69 (first value)
[6] = read-out: IC50 Values for Uncomplexed Compounds, NCI-H69 (second value)

Row | Molecule | IC50 (SSTRs, NCI-H69 membranes; [5]) [nM] | IC50 (SSTRs, NCI-H69 membranes; [6]) [nM] | TUMOR (AR42J tumor xenografts) [%ID/g] | T:B (AR42J tumor xenografts) | T:M (AR42J tumor xenografts) | also measured
1 | C[C@@H](O)[C@@H]1NC(=O)[C@H](CCCCN)NC(=O)[C@@H](Cc2c[nH]c3ccccc23)NC(=O)[C@H](Cc2ccc(O)cc2)NC(=O)[C@H](CCSCC(=O)NC[C@H](N)C(=O)N[C@@H](Cc2ccc(N)cc2)C(=O)N[C@@H](CS)C(=O)N[C@H](CO)[C@@H](C)O)N(C)C(=O)[C@H](Cc2ccccc2)NC1=O [cyclo-Tyr-D-Trp-Lys-Thr-Phe-(N—CH3)Hcy(CH2 CO-β-Dap-Phe(4-NH2)-Cys-Thr(ol))] | 0.501 | < 0.001 | 31.8 | 81 | 188 | –
2 | CC(O)[C@H](NC(=O)[C@H](CS)NC(=O)[C@H](Cc1ccc(N)cc1)NC(=O)[C@@H](N)CNC(=O)CSCC[C@H]1C(=O)N[C@@H](Cc2ccc(O)cc2)C(=O)N[C@H](Cc2c[nH]c3ccccc23)C(=O)N[C@@H](CCCCN)C(=O)N[C@@H](C(C)O)C(=O)N[C@@H](Cc2ccccc2)C(=O)N1C)C(=O)N[C@@H](CO)C(=O)O (stereo partly drawn) [cyclo-Tyr-D-Trp-Lys-Thr-Phe-(N—CH3)Hcy(CH2CO-β-Dap-Phe(4—NH2)-Cys-Thr-Ser)] (I: cyclo(F[NMehCys]Y[dW]K[Thr(3ξ)]) / II: H-[Dap][Phe(4-NH2)]C[Thr(3ξ)]S-OH; linker I:2-II:1 via X1) | 0.201 | 8.91 | 24.7 | 29 | 127 | IC50 [1]: 0.433 nM; tissue uptake dose at 1.5 h ([2]; gastrointestinal tract, read-out: GI): 8 %ID; tissue uptake at 1.5 h ([2]; kidneys): 4.8 %ID/g; tissue uptake dose at 1.5 h ([2]; spleen, read-out: Spleen): 0.21 %ID; dose excreted at 1.5 h ([2]; urine): 59%
3 | C[C@@H](O)[C@@H]1NC(=O)[C@H](CCCCN)NC(=O)[C@@H](Cc2c[nH]c3ccccc23)NC(=O)[C@H](Cc2ccc(O)cc2)NC(=O)[C@H](CCSCC(=O)NC[C@H](N)C(=O)N[C@@H](CCN)C(=O)N[C@@H](CS)C(=O)NC(CO)CO)N(C)C(=O)[C@H](Cc2ccccc2)NC1=O [cyclo-Tyr-D-Try-Lys-Thr-Phe-(N—CH3)Hcy(CH2 CO-β-Dap-Dab-Cys-Ser(ol))] | 1.08 | – | 10.8 | 30 | 89 | –
4 | ^90Y-DOTA-lanreotide | – | – | – | – | – | 90Y kidney doses [3]: 1.98-2.43 mGy/MBq; spleen doses [3]: 1.68-3.35 mGy/MBq
5 | ^111In-DOTA-lanreotide | – | – | – | – | – | retention in human liver [4]: about 3.2 % injected dose; retention in kidney ([4]; human): about 2.5 % injected dose; retention in spleen ([4]; human): about 1.2 % injected dose

More lines, main results first:

Row | IC50 (SSTRs, NCI-H69 membranes; [5]) [nM] | IC50 (SSTRs, NCI-H69 membranes; [6]) [nM] | TUMOR (AR42J tumor xenografts) [%ID/g] | T:B (AR42J tumor xenografts) | T:M (AR42J tumor xenografts) | Molecule | also measured
6 | 0.346 | 234 | 10.2 | 48 | 104 | C[C@@H](O)[C@@H]1NC(=O)[C@H](CCCCN)NC(=O)[C@@H](Cc2c[nH]c3ccccc23)NC(=O)[C@H](Cc2ccc(O)cc2)NC(=O)[C@H](CCSCC(=O)NC[C@H](N)C(=O)N[C@@H](CCCCN)C(=O)N[C@@H](CS)C(=O)N[C@H](CO)[C@@H](C)O)N(C)C(=O)[C@H](Cc2ccccc2)NC1=O [cyclo-Tyr-D-Trp-Lys-Thr-Phe-(N—CH3)Hcy(CH2 CO-β-Dap-Lys-Cys-Thr(ol))] | –
7 | 0.505 | 744 | 10.3 | 24 | 96 | C[C@@H](O)[C@@H]1NC(=O)[C@H](CCCCN)NC(=O)[C@@H](Cc2c[nH]c3ccccc23)NC(=O)[C@H](Cc2ccc(O)cc2)NC(=O)[C@H](CCSCC(=O)NC[C@H](N)C(=O)N[C@@H](CCCN)C(=O)N[C@@H](CS)C(=O)N[C@H](CO)[C@@H](C)O)N(C)C(=O)[C@H](Cc2ccccc2)NC1=O [cyclo-Tyr-D-Trp-Lys-Thr-Phe-(N—CH3)Hcy(CH2 CO-β-Dap-Orn-Cys-Thr(ol))] | –
8 | 1.57 | < 0.001 | 12.6 | 31 | 144 | C[C@@H](O)[C@@H]1NC(=O)[C@H](CCCCN)NC(=O)[C@@H](Cc2c[nH]c3ccccc23)NC(=O)[C@H](Cc2ccc(O)cc2)NC(=O)[C@H](CCSCC(=O)NC[C@H](N)C(=O)N[C@@H](CO)C(=O)N[C@@H](CS)C(=O)N[C@H](CO)[C@@H](C)O)N(C)C(=O)[C@H](Cc2ccccc2)NC1=O [cyclo-Tyr-D-Trp-Lys-Thr-Phe-(N—CH3)Hcy(CH2 CO-β-Dap-Ser-Cys-Thr(ol))] | –
